# Assay results as given in ChEMBL document CHEMBL1201861, “Genomics of Drug Sensitity in Cancer screening data, Wellcome Trust Sanger Institute”.
# Assays:
# Test in all cases: cells
# Format in all cases: functional, cell-based
# HEC-1 = conditions: Homo sapiens;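 further: growth inhibition of the cell line, read out with a cell viability assay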
# Description: SANGER: Inhibition of human HEC-1 cell growth in a cell viability assay.
# YH-13 = conditions: Homo sapiens;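 further: cell viability readout of growth suppression in the human YH-13 cell line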
# Description: SANGER: Inhibition of human YH-13 cell growth in a cell viability assay.
# LB996-RCC = conditions: Homo sapiens
# Description: SANGER: Inhibition of human LB996-RCC cell growth in a cell viability assay.
# ChaGo-K-1 = conditions: Homo sapiens;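 further: growth inhibition of ChaGo-K-1 cells, read out with a cell viability assay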
# Description: SANGER: Inhibition of human ChaGo-K-1 cell growth in a cell viability assay.
# Calu-3 = conditions: Homo sapiens;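 further: growth inhibition of human Calu-3 cells, determined with a cell viability assay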
# Description: SANGER: Inhibition of human Calu-3 cell growth in a cell viability assay.
# MDA-MB-231 = conditions: Homo sapiens
# Description: SANGER: Inhibition of human MDA-MB-231 cell growth in a cell viability assay.
# EW-22 = conditions: Homo sapiens;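 further: growth inhibition of the EW-22 cell line, measured with a cell viability readout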
# Description: SANGER: Inhibition of human EW-22 cell growth in a cell viability assay.
# RO82-W-1 = conditions: Homo sapiens;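 further: growth inhibition of human RO82-W-1 cells, measured with a cell viability assay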
# Description: SANGER: Inhibition of human RO82-W-1 cell growth in a cell viability assay.
# MKN-28 = conditions: Homo sapiens;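 further: cell viability assay read-out, IC50 reflects suppression of growth of human MKN-28 cells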
# Description: SANGER: Inhibition of human MKN28 cell growth in a cell viability assay.
# DOK = conditions: Homo sapiens;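 further: cell viability assay read-out, values reflect inhibition of cell growth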
# Description: SANGER: Inhibition of human DOK cell growth in a cell viability assay.
# M059J = conditions: Homo sapiens;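 further: growth inhibition of M059J cells, read out with a cell viability assay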
# Description: SANGER: Inhibition of human M059J cell growth in a cell viability assay.
# NCI-H1651 = conditions: Homo sapiens;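 further: Read-out is a cell viability assay, with IC50 expressing inhibition of NCI-H1651 cell growth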
# Description: SANGER: Inhibition of human NCI-H1651 cell growth in a cell viability assay.
# SK-MEL-30 = conditions: Homo sapiens;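 further: growth inhibition of SK-MEL-30 cells, determined with a cell viability assay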
# Description: SANGER: Inhibition of human SK-MEL-30 cell growth in a cell viability assay.
# NCI-N87 = conditions: Homo sapiens;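 further: growth inhibition of human NCI-N87 cells, read out with a cell viability assay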
# Description: SANGER: Inhibition of human NCI-N87 cell growth in a cell viability assay.
# MC-IXC = conditions: Homo sapiens;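 further: growth inhibition of MC-IXC cells, read out with a cell viability assay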
# Description: SANGER: Inhibition of human MC-IXC cell growth in a cell viability assay.
# COR-L23 = conditions: Homo sapiens;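 further: cell viability assay measuring how strongly compounds suppress growth of COR-L23 cells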
# Description: SANGER: Inhibition of human COR-L23 cell growth in a cell viability assay.
# SW1710 = conditions: Homo sapiens;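 further: growth inhibition of SW1710 cells, determined with a cell viability assay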
# Description: SANGER: Inhibition of human SW1710 cell growth in a cell viability assay.
# RMG-I = conditions: Homo sapiens;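 further: growth inhibition of human RMG-I cells, read out with a cell viability assay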
# Description: SANGER: Inhibition of human RMG-I cell growth in a cell viability assay.
# SK-OV-3 = conditions: Homo sapiens;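 further: growth inhibition of SK-OV-3 human cells, read out with a cell viability assay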
# Description: SANGER: Inhibition of human SK-OV-3 cell growth in a cell viability assay.
# HCC1806 = conditions: Homo sapiens;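 further: growth inhibition of the cancer cell line, determined with a cell viability assay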
# Description: SANGER: Inhibition of human HCC1806 cell growth in a cell viability assay.
# SK-MES-1 = conditions: Homo sapiens;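 further: growth inhibition of human SK-MES-1 cells, read out with a cell viability assay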
# Description: SANGER: Inhibition of human SK-MES-1 cell growth in a cell viability assay.
# HuO-3N1 = conditions: Homo sapiens;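 further: cell viability readout used to measure how strongly compounds suppress proliferation of human HuO-3N1 cells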
# Description: SANGER: Inhibition of human HuO-3N1 cell growth in a cell viability assay.
# U-118-MG = conditions: Homo sapiens
# Description: SANGER: Inhibition of human U-118-MG cell growth in a cell viability assay.
# BEN = conditions: Homo sapiens;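 further: growth inhibition of the BEN cell line, read out with a cell viability assay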
# Description: SANGER: Inhibition of human BEN cell growth in a cell viability assay.
# RCM-1 = conditions: Homo sapiens;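 further: growth inhibition of the RCM-1 line, determined with a cell viability readout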
# Description: SANGER: Inhibition of human RCM-1 cell growth in a cell viability assay.
# NCI-H520 = conditions: Homo sapiens;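 further: growth inhibition of NCI-H520 cells, measured by a cell viability assay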
# Description: SANGER: Inhibition of human NCI-H520 cell growth in a cell viability assay.
# BCPAP = conditions: Homo sapiens;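 further: growth inhibition of BCPAP cells, read out in a cell viability assay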
# Description: SANGER: Inhibition of human BCPAP cell growth in a cell viability assay.
# T98G = conditions: Homo sapiens;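 further: growth inhibition of T98G cells, read out by a cell viability assay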
# Description: SANGER: Inhibition of human T98G cell growth in a cell viability assay.
# OE33 = conditions: Homo sapiens;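 further: growth inhibition of human OE33 cells, measured by a cell viability assay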
# Description: SANGER: Inhibition of human OE33 cell growth in a cell viability assay.
# MDA-MB-361 = conditions: Homo sapiens
# KYSE-150 cell line = conditions: Homo sapiens;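 further: growth inhibition of human KYSE-150 cells, read out with a cell viability assay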
# Description: SANGER: Inhibition of human KYSE-150 cell growth in a cell viability assay.
# HN = conditions: Homo sapiens
# Description: SANGER: Inhibition of human HN cell growth in a cell viability assay.
# CAL-39 = conditions: Homo sapiens;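 further: cell viability assay measuring growth inhibition of CAL-39 cells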
# Description: SANGER: Inhibition of human CAL-39 cell growth in a cell viability assay.
# NCI-H2122 = conditions: Homo sapiens;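 further: growth inhibition of the cells, read out with a cell viability assay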
# Description: SANGER: Inhibition of human NCI-H2122 cell growth in a cell viability assay.
# CAL-51 = conditions: Homo sapiens;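 further: human CAL-51 cell line, growth inhibition read out via a cell viability assay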
# Description: SANGER: Inhibition of human CAL-51 cell growth in a cell viability assay.
# NCI-H2342 = conditions: Homo sapiens;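 further: growth inhibition of the cancer cell line, determined with a cell viability assay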
# Description: SANGER: Inhibition of human NCI-H2342 cell growth in a cell viability assay.
# CAL-54 = conditions: Homo sapiens;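 further: growth inhibition of CAL-54 cells, read out by a viability measurement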
# Description: SANGER: Inhibition of human CAL-54 cell growth in a cell viability assay.
# TI-73 = conditions: Homo sapiens;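 further: cell viability assay measuring how much compounds suppress growth of the cultured cell line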
# Description: SANGER: Inhibition of human TI-73 cell growth in a cell viability assay.
# HCC1395 = conditions: Homo sapiens;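 further: growth inhibition of HCC1395 cells, read out by a cell viability assay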
# Description: SANGER: Inhibition of human HCC1395 cell growth in a cell viability assay.
# BFTC-905 = conditions: Homo sapiens
# Description: SANGER: Inhibition of human BFTC-905 cell growth in a cell viability assay.
# SCC-25 = conditions: Homo sapiens;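 further: growth inhibition of SCC-25 cells, measured with a cell viability assay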
# Description: SANGER: Inhibition of human SCC-25 cell growth in a cell viability assay.
# FTC-133 = conditions: Homo sapiens
# HT-29 = conditions: Homo sapiens;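 further: growth inhibition of human HT-29 cells, read out by a cell viability assay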
# Description: SANGER: Inhibition of human HT-29 cell growth in a cell viability assay.
# CWR22R = conditions: Homo sapiens, 22Rv1;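 further: growth inhibition of 22Rv1 cells, read out with a cell viability assay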
# Description: SANGER: Inhibition of human 22RV1 cell growth in a cell viability assay.
# HuO9 = conditions: Homo sapiens;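 further: growth inhibition of HuO9 cells, read out with a cell viability assay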
# Description: SANGER: Inhibition of human HuO9 cell growth in a cell viability assay.
# NCI-H727 = conditions: Homo sapiens;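 further: growth inhibition of human NCI-H727 cells, read out with a cell viability assay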
# Description: SANGER: Inhibition of human NCI-H727 cell growth in a cell viability assay.
# BT-549 = conditions: Homo sapiens
# Description: SANGER: Inhibition of human BT-549 cell growth in a cell viability assay.
# HTC-C3 = conditions: Homo sapiens;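 further: inhibition of cell growth, read out with a cell viability assay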
# Description: SANGER: Inhibition of human HTC-C3 cell growth in a cell viability assay.
# P12-Ichikawa = conditions: Homo sapiens
# HCT-15 = conditions: Homo sapiens;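 further: cell viability readout, IC50 reflecting suppression of HCT-15 cell growth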
# Description: SANGER: Inhibition of human HCT-15 cell growth in a cell viability assay.
# D-336MG = conditions: Homo sapiens
# Description: SANGER: Inhibition of human D-336MG cell growth in a cell viability assay.
smiles,measurement,setting,value
Cn1c(=O)n(-c2ccc(C(C)(C)C#N)cc2)c2c3cc(-c4cnc5ccccc5c4)ccc3ncc21 [DACTOLISIB],IC50,HEC-1,67.5 nM
same,IC50,YH-13,21.9 nM
same,IC50,LB996-RCC,47.2 nM
same,IC50,ChaGo-K-1,328 nM
same,IC50,Calu-3,72 nM
same,IC50,MDA-MB-231,105 nM
same,IC50,EW-22,46.2 nM
same,IC50,RO82-W-1,59.9 nM
same,IC50,MKN-28,1090 nM
same,IC50,DOK,56 nM
same,IC50,M059J,63.6 nM
same,IC50,NCI-H1651,344 nM
same,IC50,SK-MEL-30,196 nM
same,IC50,NCI-N87,111 nM
same,IC50,MC-IXC,70.1 nM
same,IC50,COR-L23,49.2 nM
same,IC50,SW1710,18.7 nM
same,IC50,RMG-I,468 nM
same,IC50,SK-OV-3,100 nM
same,IC50,HCC1806,168 nM
same,IC50,SK-MES-1,53.3 nM
same,IC50,HuO-3N1,67.3 nM
same,IC50,U-118-MG,134 nM
same,IC50,BEN,31.6 nM
same,IC50,RCM-1,497 nM
same,IC50,NCI-H520,83.1 nM
same,IC50,BCPAP,18.7 nM
same,IC50,T98G,29.9 nM
same,IC50,OE33,189 nM
same,IC50,MDA-MB-361,61 nM
same,IC50,KYSE-150 cell line,25.9 nM
same,IC50,HN,5.96 nM
same,IC50,CAL-39,37.9 nM
same,IC50,NCI-H2122,201 nM
same,IC50,CAL-51,23.9 nM
same,IC50,NCI-H2342,590 nM
same,IC50,CAL-54,238 nM
same,IC50,TI-73,25.3 nM
same,IC50,HCC1395,698 nM
same,IC50,BFTC-905,60.7 nM
same,IC50,SCC-25,89.8 nM
same,IC50,FTC-133,25.1 nM
same,IC50,HT-29,> 2000 nM
same,IC50,CWR22R,49.1 nM
same,IC50,HuO9,26.8 nM
same,IC50,NCI-H727,412 nM
same,IC50,BT-549,119 nM
same,IC50,HTC-C3,117 nM
same,IC50,P12-Ichikawa,15.1 nM
CC(=O)c1c(C)c2cnc(Nc3ccc(N4CCNCC4)cn3)nc2n(C2CCCC2)c1=O [PALBOCICLIB],IC50,HEC-1,> 4000 nM
same,IC50,YH-13,3440 nM
same,IC50,LB996-RCC,> 4000 nM
same,IC50,ChaGo-K-1,> 4000 nM
same,IC50,Calu-3,> 4000 nM
same,IC50,MDA-MB-231,3820 nM
same,IC50,EW-22,> 4000 nM
same,IC50,RO82-W-1,2620 nM
same,IC50,DOK,> 4000 nM
same,IC50,M059J,> 4000 nM
same,IC50,NCI-H1651,> 4000 nM
same,IC50,SK-MEL-30,> 4000 nM
same,IC50,NCI-N87,> 4000 nM
same,IC50,MC-IXC,> 4000 nM
same,IC50,COR-L23,1230 nM
same,IC50,SW1710,2070 nM
same,IC50,RMG-I,> 4000 nM
same,IC50,SK-OV-3,> 4000 nM
same,IC50,HCC1806,> 4000 nM
same,IC50,SK-MES-1,2620 nM
same,IC50,HuO-3N1,> 4000 nM
same,IC50,U-118-MG,> 4000 nM
same,IC50,BEN,> 4000 nM
same,IC50,RCM-1,> 4000 nM
same,IC50,NCI-H520,747 nM
same,IC50,BCPAP,1660 nM
same,IC50,T98G,2010 nM
same,IC50,OE33,> 4000 nM
same,IC50,MDA-MB-361,> 4000 nM
same,IC50,KYSE-150 cell line,1000 nM
same,IC50,HN,1540 nM
same,IC50,CAL-39,1080 nM
same,IC50,NCI-H2122,> 4000 nM
same,IC50,CAL-51,1750 nM
same,IC50,NCI-H2342,> 4000 nM
same,IC50,CAL-54,2200 nM
same,IC50,TI-73,> 4000 nM
same,IC50,HCC1395,> 4000 nM
same,IC50,BFTC-905,1240 nM
same,IC50,SCC-25,> 4000 nM
same,IC50,FTC-133,> 4000 nM
same,IC50,HT-29,> 4000 nM
same,IC50,CWR22R,1680 nM
same,IC50,HuO9,> 4000 nM
same,IC50,NCI-H727,> 4000 nM
same,IC50,BT-549,> 4000 nM
same,IC50,HTC-C3,433 nM
same,IC50,P12-Ichikawa,96 nM
CCCS(=O)(=O)Nc1ccc(F)c(C(=O)c2c[nH]c3ncc(Cl)cc23)c1F [PLX-4720],IC50,HEC-1,> 10000 nM
same,IC50,YH-13,> 10000 nM
same,IC50,LB996-RCC,> 10000 nM
same,IC50,ChaGo-K-1,> 10000 nM
same,IC50,Calu-3,> 10000 nM
same,IC50,MDA-MB-231,> 10000 nM
same,IC50,EW-22,> 10000 nM
same,IC50,RO82-W-1,> 10000 nM
same,IC50,MKN-28,> 10000 nM
same,IC50,DOK,> 10000 nM
same,IC50,HCT-15,> 10000 nM
same,IC50,M059J,> 10000 nM
same,IC50,NCI-H1651,> 10000 nM
same,IC50,SK-MEL-30,1330 nM
same,IC50,NCI-N87,> 10000 nM
same,IC50,MC-IXC,> 10000 nM
same,IC50,COR-L23,> 10000 nM
same,IC50,SW1710,> 10000 nM
same,IC50,RMG-I,> 10000 nM
same,IC50,SK-OV-3,> 10000 nM
same,IC50,HCC1806,6820 nM
same,IC50,SK-MES-1,> 10000 nM
same,IC50,HuO-3N1,2880 nM
same,IC50,U-118-MG,> 10000 nM
same,IC50,D-336MG,> 10000 nM
same,IC50,BEN,> 10000 nM
same,IC50,RCM-1,> 10000 nM
same,IC50,NCI-H520,> 10000 nM
same,IC50,BCPAP,7220 nM
same,IC50,T98G,> 10000 nM
same,IC50,OE33,> 10000 nM
same,IC50,MDA-MB-361,> 10000 nM
same,IC50,KYSE-150 cell line,> 10000 nM
same,IC50,HN,> 10000 nM
same,IC50,CAL-39,> 10000 nM
same,IC50,NCI-H2122,> 10000 nM
same,IC50,CAL-51,> 10000 nM
same,IC50,NCI-H2342,> 10000 nM
same,IC50,CAL-54,> 10000 nM
same,IC50,TI-73,6010 nM
same,IC50,HCC1395,> 10000 nM
same,IC50,BFTC-905,> 10000 nM
same,IC50,SCC-25,> 10000 nM
same,IC50,FTC-133,> 10000 nM
same,IC50,HT-29,> 10000 nM
same,IC50,CWR22R,> 10000 nM
same,IC50,HuO9,> 10000 nM
same,IC50,NCI-H727,> 10000 nM
same,IC50,BT-549,> 10000 nM
same,IC50,HTC-C3,1660 nM
same,IC50,P12-Ichikawa,> 10000 nM
